pEC50: −log10 of the molar value.

The pEC50 is the EC50 on a negative log10 scale, so that one unit is a factor of ten.

The first experiment addresses T1, Transient receptor potential cation channel subfamily M member 8 (Homo sapiens, UniProt Q7Z2W7). Kind of experiment: Potency index, ratio of WS-3 EC50 to compound EC50 for human TRPM8 receptor.
Conditions: not given
Target sequence in this assay (Q7Z2W7 whole entry, looked up): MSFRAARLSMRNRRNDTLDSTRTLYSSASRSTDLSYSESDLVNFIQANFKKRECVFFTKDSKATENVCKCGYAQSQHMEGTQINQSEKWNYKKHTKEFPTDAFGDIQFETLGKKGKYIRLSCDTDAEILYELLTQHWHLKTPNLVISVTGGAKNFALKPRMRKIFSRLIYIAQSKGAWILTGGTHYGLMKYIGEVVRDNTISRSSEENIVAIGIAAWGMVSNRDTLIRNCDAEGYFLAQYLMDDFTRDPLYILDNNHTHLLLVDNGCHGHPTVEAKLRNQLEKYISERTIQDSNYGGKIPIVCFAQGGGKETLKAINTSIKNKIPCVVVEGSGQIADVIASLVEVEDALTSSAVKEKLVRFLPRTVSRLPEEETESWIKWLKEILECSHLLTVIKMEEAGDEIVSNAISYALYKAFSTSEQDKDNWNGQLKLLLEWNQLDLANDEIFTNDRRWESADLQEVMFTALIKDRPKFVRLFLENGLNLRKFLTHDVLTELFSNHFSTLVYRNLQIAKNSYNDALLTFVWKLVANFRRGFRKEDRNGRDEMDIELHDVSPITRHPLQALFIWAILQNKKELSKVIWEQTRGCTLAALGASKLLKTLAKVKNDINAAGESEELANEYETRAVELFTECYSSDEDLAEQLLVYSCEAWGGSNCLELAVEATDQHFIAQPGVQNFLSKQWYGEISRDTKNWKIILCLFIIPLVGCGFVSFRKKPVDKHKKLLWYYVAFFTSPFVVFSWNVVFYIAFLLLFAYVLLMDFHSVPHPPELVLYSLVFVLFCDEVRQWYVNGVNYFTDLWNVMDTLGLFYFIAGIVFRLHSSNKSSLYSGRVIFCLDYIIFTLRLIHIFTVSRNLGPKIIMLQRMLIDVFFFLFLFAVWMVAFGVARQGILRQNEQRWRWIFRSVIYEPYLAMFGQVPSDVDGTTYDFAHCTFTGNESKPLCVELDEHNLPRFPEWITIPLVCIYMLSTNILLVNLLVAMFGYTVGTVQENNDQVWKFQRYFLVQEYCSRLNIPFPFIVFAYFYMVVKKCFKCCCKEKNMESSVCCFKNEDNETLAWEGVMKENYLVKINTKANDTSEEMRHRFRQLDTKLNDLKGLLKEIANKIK
With `CCN(Cc1cccs1)C(=O)COc1ccc(C#N)cc1`, the Ratio EC50 came out at 2.
In the case of `CCN(Cc1ccoc1)C(=O)COc1ccc(C)cc1`, the Ratio EC50 amounted to 32.
`Cc1ccc(OCC(=O)N(Cc2cccs2)C2COC2)cc1`: the Ratio EC50 turned out to be 0.3.
Still for that read-out and setting: under `CCN(Cc1cccs1)C(=O)COc1ccc(C(F)(F)F)cc1` stands 18; under `Cc1ccc(OCC(=O)N(Cc2cccs2)c2nccs2)cc1`, 2; under `Cc1ccc(OCC(=O)NCc2cccs2)cc1`, 0.1.
The same measure, in the same setting: under `CCN(Cc1cccs1)C(=O)CCc1ccc(C)cc1` stands 40.
Turning to `Cc1ccc(OCC(=O)N(Cc2cccs2)c2cnccn2)cc1`, the Ratio EC50 was found to be 3.
Turning to `COc1ccc(OCC(=O)N(Cc2cccs2)c2ccn[nH]2)cc1`, the Ratio EC50 was determined as 1140.
On the same count and under the same terms, the same measure for `Cc1ccc(OCC(=O)N(O)Cc2cccs2)cc1`: 0.4.
Still for that read-out and setting: the same measure for `CCN(Cc1cccs1)C(=O)/C=C/c1ccc(C)cc1`: 2340.
On the same count and under the same terms, under `CCN(Cc1cccs1)C(=O)C(C)Oc1ccc(C)cc1` (stereo unspecified) stands 4; under `CCN(Cc1cccs1)C(=O)COc1ccc(F)cc1`, 10; under `CCN(Cc1cccs1)C(=O)COc1cccc(C)c1`, 42.
As to `Cc1ccc(OCC(=O)N(Cc2cccs2)c2cnn(C)c2)cc1`, the Ratio EC50 was 0.1.
Same read-out and setting: under `Cc1ccc(OCC(=O)N(Cc2cccs2)c2nccn2C)cc1` stands 3.
The same measure, in the same setting: the same measure for `Cc1ccc(OCC(=O)N(Cc2cccs2)c2cn[nH]c2)cc1`: 3820; for `CCN(Cc1ccco1)C(=O)COc1ccc(C)cc1`: 9; for `Cc1ccc(OCC(=O)N(CCO)Cc2cccs2)cc1`: 5.
The same measure, in the same setting: under `CCN(Cc1cccs1)C(=O)/C=C/c1ccc2c(c1)OCO2` stands 6830; under `CCCN(Cc1cccs1)C(=O)COc1ccc(C)cc1`, 149; under `CCN(Cc1ccccn1)C(=O)COc1ccc(C)cc1`, 0.2.
For the molecule `CCN(Cc1c[nH]nn1)C(=O)COc1ccc(C)cc1`, the Ratio EC50 was 0.1.
Still for that read-out and setting: the same measure for `CCN(Cc1ccsc1)C(=O)COc1ccc(C)cc1`: 49; for `Cc1ccc(OCC(=O)N(Cc2cccs2)C2CC2)cc1`: 577.
The same measure, in the same setting: the same measure for `Cc1ccc(OCC(=O)N(Cc2cccs2)c2cccnc2)cc1`: 24.
On the same count and under the same terms, the same measure for `CCN(Cc1ccc(C)s1)C(=O)COc1ccc(C)cc1`: 18.
For the molecule `CCN(Cc1cccs1)C(=O)COc1ccc(OC)cc1`, the Ratio EC50 stood at 32.
On the same count and under the same terms, the same measure for `CCN(Cc1cccs1)C(=O)COc1ccc2c(c1)CCCC2`: 7; for `CCc1ccc(OCC(=O)N(CC)Cc2cccs2)cc1`: 66; for `CCN(Cc1cccs1)C(=O)c1cc2cc(C)ccc2s1`: 3.
The same measure, in the same setting: the same measure for `O=C(COc1ccc2c(c1)OCO2)N(Cc1cccs1)c1ccn[nH]1`: 6340; for `CON(Cc1cccs1)C(=O)COc1ccc(C)cc1`: 317; for `Cc1ccc(OCC(=O)N(Cc2cccs2)C2CCCCC2)cc1`: 0.1.
Consider `CCN(Cc1cccs1)C(=O)COc1ccc(C(C)C)cc1`, for which the Ratio EC50 was 10.
On the same count and under the same terms, under `O=C(/C=C/c1ccc2c(c1)OCO2)N(Cc1cccs1)c1ccn[nH]1` stands over 1e+06.
Consider `CCN(Cc1cccn1C)C(=O)COc1ccc(C)cc1`, for which the Ratio EC50 is 0.3.

Another experiment deals with T1, Transient receptor potential cation channel subfamily M member 8. Kind of experiment: Agonist activity at human TRPM8 expressed in HEK293 cells assessed as increase in intracellular calcium level after 15 mins by Fluo-3-AM dye-based fluorescence assay. The format is cell-based. To be noted: read-out: EC50.
Target sequence in this assay (Q7Z2W7 whole entry): as the sequence (Q7Z2W7 whole entry, looked up) above
Consider `CCN(Cc1cccs1)C(=O)COc1ccc(C#N)cc1`, for which the pEC50 is 5.70.
Still for that read-out and setting: the same measure for `CCN(Cc1ccoc1)C(=O)COc1ccc(C)cc1`: 6.87; for `Cc1ccc(OCC(=O)N(Cc2cccs2)C2COC2)cc1`: 4.64; for `CCN(Cc1cccs1)C(=O)COc1ccc(C(F)(F)F)cc1`: 6.63.
Turning to `Cc1ccc(OCC(=O)N(Cc2cccs2)c2nccs2)cc1`, the pEC50 was 5.65.
As for `Cc1ccc(OCC(=O)NCc2cccs2)cc1`, the pEC50 is 4.60.
In the case of `CCN(Cc1cccs1)C(=O)CCc1ccc(C)cc1`, the pEC50 was 7.03.
Consider `Cc1ccc(OCC(=O)N(Cc2cccs2)c2cnccn2)cc1`, for which the pEC50 is 5.91.
On the same count and under the same terms, under `Cc1ccc(OCC(=O)N(O)Cc2cccs2)cc1` stands 5.10; under `CCN(Cc1cccs1)C(=O)/C=C/c1ccc(C)cc1`, 8.70; under `CCN(Cc1cccs1)C(=O)C(C)Oc1ccc(C)cc1` (stereo unspecified), 6.05.
On the same count and under the same terms, the same measure for `CCN(Cc1cccs1)C(=O)COc1ccc(F)cc1`: 6.37; for `CCN(Cc1cccs1)C(=O)COc1cccc(C)c1`: 7.01; for `Cc1ccc(OCC(=O)N(Cc2cccs2)c2cnn(C)c2)cc1`: 4.20.
For the molecule `Cc1ccc(OCC(=O)N(Cc2cccs2)c2nccn2C)cc1`, the pEC50 is 5.75.
With `Cc1ccc(OCC(=O)N(Cc2cccs2)c2cn[nH]c2)cc1`, the pEC50 is 8.85.
Same read-out and setting: under `CCN(Cc1ccco1)C(=O)COc1ccc(C)cc1` stands 6.31; under `Cc1ccc(OCC(=O)N(CCO)Cc2cccs2)cc1`, 6.05; under `CCN(Cc1cccs1)C(=O)/C=C/c1ccc2c(c1)OCO2`, 9.15.
Turning to `CCCN(Cc1cccs1)C(=O)COc1ccc(C)cc1`, the pEC50 was 7.40.
The same measure, in the same setting: the same measure for `CCN(Cc1ccccn1)C(=O)COc1ccc(C)cc1`: 4.80.
On the same count and under the same terms, the same measure for `CCN(Cc1c[nH]nn1)C(=O)COc1ccc(C)cc1`: 4.51.
Still for that read-out and setting: under `CCN(Cc1ccsc1)C(=O)COc1ccc(C)cc1` stands 7.06.
In the case of `Cc1ccc(OCC(=O)N(Cc2cccs2)C2CC2)cc1`, the pEC50 is 8.10.
On to `Cc1ccc(OCC(=O)N(Cc2cccs2)c2cccnc2)cc1`, for which the pEC50 was 6.70.
Same read-out and setting: the same measure for `CCN(Cc1ccc(C)s1)C(=O)COc1ccc(C)cc1`: 6.75.
Still for that read-out and setting: the same measure for `CCN(Cc1cccs1)C(=O)COc1ccc(OC)cc1`: 6.92.
For `CCN(Cc1cccs1)C(=O)COc1ccc2c(c1)CCCC2`, the pEC50 was 6.16.
For the molecule `CCc1ccc(OCC(=O)N(CC)Cc2cccs2)cc1`, the pEC50 is 7.17.
In the case of `CCN(Cc1cccs1)C(=O)c1cc2cc(C)ccc2s1`, the pEC50 is 5.80.
Regarding `O=C(COc1ccc2c(c1)OCO2)N(Cc1cccs1)c1ccn[nH]1`, the pEC50 was 9.22.
Take `CON(Cc1cccs1)C(=O)COc1ccc(C)cc1`: the negative logarithm of the EC50 (pEC50) is 8.00.
Same read-out and setting: the same measure for `Cc1ccc(OCC(=O)N(Cc2cccs2)C2CCCCC2)cc1`: 4.40.
As for `CCN(Cc1cccs1)C(=O)COc1ccc(C(C)C)cc1`, the negative-log EC50 (pEC50) is 6.40.
Still for that read-out and setting: the same measure for `O=C(/C=C/c1ccc2c(c1)OCO2)N(Cc1cccs1)c1ccn[nH]1`: 11.70; for `CCN(Cc1cccn1C)C(=O)COc1ccc(C)cc1`: 4.67.

The next experiment relates to Homo sapiens. Kind of experiment: In vivo agonist activity at human TRPM8 in trained human subjects assessed as concentration required to deliver cooling sensation equivalent to 45 uM WS-3 by measuring cooling intensity. Format: functional.
Conditions: not given
Regarding `CCN(Cc1ccoc1)C(=O)COc1ccc(C)cc1`, the Activity turned out to be 5 µM.
For `CCN(Cc1cccs1)C(=O)CCc1ccc(C)cc1`, the Activity is over 5 µM.
The same measure, in the same setting: under `COc1ccc(OCC(=O)N(Cc2cccs2)c2ccn[nH]2)cc1` stands 5 µM.
On the same count and under the same terms, the same measure for `CCN(Cc1cccs1)C(=O)/C=C/c1ccc(C)cc1`: 3 µM; for `CCN(Cc1cccs1)C(=O)COc1cccc(C)c1`: 5 µM.
Same read-out and setting: the same measure for `Cc1ccc(OCC(=O)N(Cc2cccs2)c2cn[nH]c2)cc1`: over 5 µM; for `CCN(Cc1ccco1)C(=O)COc1ccc(C)cc1`: 15 µM; for `CCCN(Cc1cccs1)C(=O)COc1ccc(C)cc1`: over 5 µM.
Take `CCN(Cc1ccsc1)C(=O)COc1ccc(C)cc1`: the Activity was 5 µM.
Same read-out and setting: the same measure for `Cc1ccc(OCC(=O)N(Cc2cccs2)C2CC2)cc1`: 5 µM; for `Cc1ccc(OCC(=O)N(Cc2cccs2)c2cccnc2)cc1`: 15 µM; for `CCN(Cc1cccs1)C(=O)COc1ccc(OC)cc1`: 15 µM.
On the same count and under the same terms, the same measure for `CCc1ccc(OCC(=O)N(CC)Cc2cccs2)cc1`: 5 µM.

For the origin of these results see ChEMBL document CHEMBL4052716, “Discovery and development of a novel class of phenoxyacetyl amides as highly potent TRPM8 agonists for use as cooling agents” (Bioorg Med Chem Lett, 2017).
